Assay results taken from patent US20250268903A1, “RXFP1 AGONISTS” (BRISTOL-MYERS SQUIBB COMPANY, priority 2021, published 2025).

Molecular target: T1, human RXFP1 (Homo sapiens, UniProt Q9HBX9)
T1 construct: expressed in transfected cells
T1 sequence (Q9HBX9 1-757): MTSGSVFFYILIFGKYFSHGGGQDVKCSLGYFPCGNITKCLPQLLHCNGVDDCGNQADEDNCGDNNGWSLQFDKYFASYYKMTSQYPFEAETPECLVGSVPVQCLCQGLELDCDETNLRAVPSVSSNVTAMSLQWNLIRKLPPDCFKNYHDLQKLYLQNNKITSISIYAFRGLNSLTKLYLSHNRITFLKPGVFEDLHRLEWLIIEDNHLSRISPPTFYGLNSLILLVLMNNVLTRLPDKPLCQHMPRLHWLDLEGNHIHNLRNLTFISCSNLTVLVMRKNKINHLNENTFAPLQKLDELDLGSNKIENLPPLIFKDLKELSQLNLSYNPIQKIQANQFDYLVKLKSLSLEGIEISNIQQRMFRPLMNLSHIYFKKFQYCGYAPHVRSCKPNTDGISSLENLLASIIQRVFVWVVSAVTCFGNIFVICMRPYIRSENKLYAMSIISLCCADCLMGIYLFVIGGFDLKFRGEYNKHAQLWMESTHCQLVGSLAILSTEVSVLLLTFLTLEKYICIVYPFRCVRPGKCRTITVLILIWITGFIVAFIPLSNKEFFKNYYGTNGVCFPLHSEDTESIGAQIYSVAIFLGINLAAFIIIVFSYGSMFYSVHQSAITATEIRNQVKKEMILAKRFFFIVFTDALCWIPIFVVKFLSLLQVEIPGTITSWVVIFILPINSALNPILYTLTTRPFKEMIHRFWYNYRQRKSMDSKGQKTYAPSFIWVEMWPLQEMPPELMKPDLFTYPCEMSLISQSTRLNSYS
Assay: hRXFP1 HEK293 cAMP assay (HTRF)
Type: cell-based
Conditions: HEK293 cells stably expressing human RXFP1, 30 min at room temperature
Procedure, shortened: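 Intracellular cAMP was read by HTRF, with potency fitted to a 4-parameter logistic curve. Compound exposure (0.010 nM–50 μM final, 2% DMSO) lasted 30 min at room temperature. Cells were hRXFP1-HEK293 at 1500 per well in IBMX-containing (0.5 mM) HEPES-buffered HBSS.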

SMILES	EC50 [nM]
COc1ccc(/C=C/C(=O)N[C@H]2C[C@@H](O)C2)cc1C(=O)N[C@@H]1C2CCC(/C2=C/C2CC2)[C@@H]1C(=O)Nc1ccc(F)c(C(F)(F)F)c1 (stereo partly drawn) [Example 128, (2S,3R,7Z)-7-(cyclopropylmethyli-dene)-N-[4-fluoro-3-(trifluoromethyl)phe-nyl]-3-{2-methoxy-5-[(1E)-2-{[(1s,3s)-3-hydroxycyclobutyl]carbamoyl}eth-1-en-1-yl]benzamido}bicyclo [2.2.1]heptane-2-carboxamide]	96
COc1ccc(/C=C/C(=O)N2CC[C@@H](O)C2)cc1C(=O)N[C@@H]1C2CCC(/C2=C/C(F)(F)F)[C@@H]1C(=O)Nc1ccc(F)c(C(F)(F)F)c1 (stereo partly drawn) [Example 129, (2S,3R,7Z)-N-[4-fluoro-3-(trifluoromethyl)phe-nyl]-3-{5-[(1E)-3-[(3R)-3-hydroxypyrrolidin-1-yl]-3-oxoprop-1-en-1-yl]-2-methoxybenzamido}-7-(2,2,2-trifluoroethylidene)bi-cyclo[2.2.1]heptane-2-carboxamide]	111
COc1ccc(/C=C/C(=O)N2CC[C@H](O)C2)cc1C(=O)N[C@@H]1C2CCC(/C2=C/C(F)(F)F)[C@@H]1C(=O)Nc1ccc(F)c(C(F)(F)F)c1 (stereo partly drawn) [Example 130, (2S,3R,7Z)-N-[4-fluoro-3-(trifluoromethyl)phe-nyl]-3-{5-[(1E)-3-[(3S)-3-hydroxypyrrolidin-1-yl]-3-oxoprop-1-en-1-yl]-2-methoxybenzamido}-7-(2,2,2-trifluoroethylidene)bi-cyclo[2.2.1]heptane-2-carboxamide]	114
COc1ccc(/C=C/C(=O)N[C@H]2C[C@H](O)C2)cc1C(=O)NC1C2CCC(/C2=C/C(F)(F)F)[C@@H]1C(=O)Nc1ccc(F)c(C(F)(F)F)c1 (stereo partly drawn) [Example 131, (2S,3R,7Z)-N-[4-fluoro-3-(trifluoromethyl)phe-nyl]-3-{2-methoxy-5-[(1E)-2-{[(1r,3r)-3-hydroxycyclobutyl]car-bamoyl}eth-1-en-1-yl]benzamido}-7-(2,2,2-trifluoroethylidene)bi-cyclo[2.2.1]heptane-2-carboxamide]	264
COc1ccc(/C=C/C(N)=O)cc1C(=O)N[C@@H]1C2CCC(/C2=C/C(F)(F)F)[C@@H]1C(=O)Nc1ccc(F)c(C(F)(F)F)c1 (stereo partly drawn) [Example 132, (2S,3R,7Z)-3-{5-[(1E)-2-carbamoyleth-1-en-1-yl]-2-methoxybenzamido}-N-[4-fluoro-3-(trifluoromethyl)phe-nyl]-7-(2,2,2-trifluoroethylidene)bi-cyclo[2.2.1]heptane-2-carboxamide]	380
COc1ccc(/C=C/C(=O)NCCO)cc1C(=O)N[C@@H]1C2CCC(/C2=C/C(F)(F)F)[C@@H]1C(=O)Nc1ccc(F)c(C(F)(F)F)c1 (stereo partly drawn) [Example 133, (2S,3R,7Z)-N-[4-fluoro-3-(trifluoromethyl)phe-nyl]-3-{5-[(1E)-2-[(2-hydroxyethyl)carba-moyl]eth-1-en-1-yl]-2-methoxybenzamido}-7-(2,2,2-trifluoroethylidene)bi-cyclo[2.2.1]heptane-2-carboxamide]	384
COc1ccc(/C=C/C(=O)N[C@H]2C[C@@H](O)C2)cc1C(=O)N[C@@H]1C2CCC(/C2=C/C(F)(F)F)[C@@H]1C(=O)Nc1ccc(F)c(C(F)(F)F)c1 (stereo partly drawn) [Example 134, (2S,3R,7Z)-N-[4-fluoro-3-(trifluoromethyl)phe-nyl]-3-{2-methoxy-5-[(1E)-2-{[(1s,3s)-3-hydroxycyclobutyl]car-bamoyl}eth-1-en-1-yl]benzamido}-7-(2,2,2-trifluoroethylidene)bi-cyclo[2.2.1]heptane-2-carboxamide]	561

The remaining lines, values ahead:

EC50 [nM]	SMILES
644	COc1ccc(/C=C/C(=O)NC2CCC2)cc1C(=O)NC1C2CCC(/C2=C/C(F)(F)F)[C@@H]1C(=O)Nc1ccc(F)c(C(F)(F)F)c1 (stereo partly drawn) [Example 135, (2S,3R,7Z)-3-{5-[(1E)-2-(cyclobutylcarbamoyl)eth-1-en-1-yl]-2-methoxybenzamido}-N-[4-fluoro-3-(trifluoromethyl)phe-nyl]-7-(2,2,2-trifluoroethylidene)bi-cyclo[2.2.1]heptane-2-carboxamide]
776	COc1ccc(/C=C/C(=O)NCC(F)(F)F)cc1C(=O)NC1C2CCC(/C2=C/C(F)(F)F)[C@@H]1C(=O)Nc1ccc(F)c(C(F)(F)F)c1 (stereo partly drawn) [Example 136, (2S,3R,7Z)-N-[4-fluoro-3-(trifluoromethyl)phe-nyl]-3-{2-methoxy-5-[(1E)-2-[(2,2,2-trifluoroethyl)carba-moyl]eth-1-en-1-yl]benzamido}-7-(2,2,2-trifluoroethylidene)bi-cyclo[2.2.1]heptane-2-carboxamide]
400	COc1ccc(CCC(=O)NCCO)cc1C(=O)N[C@@H]1C2CCC(/C2=C/C(F)(F)F)[C@@H]1C(=O)Nc1ccc(F)c(C(F)(F)F)c1 (stereo partly drawn) [Example 137, (2S,3R,7Z)-N-[4-fluoro-3-(trifluoromethyl)phe-nyl]-3-(5-{2-[(2-hydroxyethyl)carba-moyl]ethyl}-2-methoxybenzamido)-7-(2,2,2-trifluoroethylidene)bi-cyclo[2.2.1]heptane-2-carboxamide]
428	COc1ccc(CCC(=O)N2CC[C@H](O)C2)cc1C(=O)N[C@@H]1C2CCC(/C2=C/C(F)(F)F)[C@@H]1C(=O)Nc1ccc(F)c(C(F)(F)F)c1 (stereo partly drawn) [Example 138, (2S,3R,7Z)-N-[4-fluoro-3-(trifluoromethyl)phe-nyl]-3-(5-{3-[(3S)-3-hydroxypyrrolidin-1-yl]-3-oxopropyl}-2-methoxybenzamido)-7-(2,2,2-trifluoroethylidene)bi-cyclo[2.2.1]heptane-2-carboxamide]
694	COc1ccc(CCC(=O)NC2CCC2)cc1C(=O)NC1C2CCC(/C2=C/C(F)(F)F)[C@@H]1C(=O)Nc1ccc(F)c(C(F)(F)F)c1 (stereo partly drawn) [Example 139, (2S,3R,7Z)-3-{5-[2-(cyclobutylcarbamoyl)ethyl]-2-methoxybenzamido}-N-[4-fluoro-3-(trifluoromethyl)phe-nyl]-7-(2,2,2-trifluoroethylidene)bi-cyclo[2.2.1]heptane-2-carboxamide]
736	COc1ccc(CCC(N)=O)cc1C(=O)NC1C2CCC(/C2=C/C(F)(F)F)[C@@H]1C(=O)Nc1ccc(F)c(C(F)(F)F)c1 (stereo partly drawn) [Example 140, (2S,3R,7Z)-3-[5-(2-carbamoylethyl)-2-methoxybenzamido]-N-[4-fluoro-3-(trifluoromethyl)phe-nyl]-7-(2,2,2-trifluoroethylidene)bi-cyclo[2.2.1]heptane-2-carboxamide]
829	COc1ccc(CCC(=O)NCC(F)(F)F)cc1C(=O)NC1C2CCC(/C2=C/C(F)(F)F)[C@@H]1C(=O)Nc1ccc(F)c(C(F)(F)F)c1 (stereo partly drawn) [Example 141, (2S,3R,7Z)-N-[4-fluoro-3-(trifluoromethyl)phe-nyl]-3-(2-methoxy-5-{2-[(2,2,2-trifluoroethyl)carba-moyl]ethyl}benzami-do)-7-(2,2,2-trifluoroethylidene)bi-cyclo[2.2.1]heptane-2-carboxamide]
167	CCOC(=O)C1CCCC(c2ccc(OC)c(C(=O)N[C@@H]3C4CCC(/C4=C/C(F)(F)F)[C@@H]3C(=O)Nc3ccc(F)c(C(F)(F)F)c3)c2)C1 (stereo partly shown) [Example 142]
202	CCOC(=O)C1CCC(c2ccc(OC)c(C(=O)NC3C4CCC(/C4=C/C(F)(F)F)[C@@H]3C(=O)Nc3ccc(F)c(C(F)(F)F)c3)c2)CC1 (stereo partly drawn) [Example 143, ethyl 4-(3-{[(2R,3S,7Z)-3-{[4-fluoro-3-(trifluoromethyl)phe-nyl]carbamoyl}-7-(2,2,2-trifluoroethylidene)bi-cyclo[2.2.1]heptan-2-yl]carbamoyl}-4-methoxyphenyl)cyclo-hexane-1-carboxylate]
